Laboratory results taken from paper PMC10065799, “High-throughput profiling of sequence recognition by tyrosine kinases and SH2 domains using bacterial peptide display” (eLife, 2023).

Biological target: T1, c-Abl kinase domain (Mus musculus, UniProt P00520)
T1 sequence (P00520 242-493 limits assumed): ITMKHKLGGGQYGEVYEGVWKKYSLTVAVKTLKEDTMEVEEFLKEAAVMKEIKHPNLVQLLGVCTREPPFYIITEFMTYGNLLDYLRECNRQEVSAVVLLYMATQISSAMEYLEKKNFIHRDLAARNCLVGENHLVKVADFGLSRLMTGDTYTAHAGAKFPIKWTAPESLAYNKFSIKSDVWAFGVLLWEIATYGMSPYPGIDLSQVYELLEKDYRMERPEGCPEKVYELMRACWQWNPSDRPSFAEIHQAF
Assay: pTyr-Var library bacterial peptide display kinase screen (enrichment scores)
Assay type: biochemical
Details: variant versus reference peptide

GMAHNYRNRSQ [AASS_Y188_S191R]
c-Abl difference (mean log2 variant - mean log2 reference): 0.7958
